Experimental findings from patent US4859229A, “3-Aryluracils having an ether (thio) carbomyloxy or sulphomyloxy substituent on the aromatic moiety” (Hoffmann-La Roche Inc., priority 1986, dated 1989) are described below.

SMILES strings stand for the structures.

The test has as its system weeds, including weed grasses. As to the kind of experiment: herbicidal activity (general statement, no test described). The class given is in vivo. The settings on record: in words; no rate or test printed.

For the compound `Cn1c(C(F)(F)F)cc(=O)n(-c2cc(O)c(Cl)cc2F)c1=O` [3-(4-chloro-2-fluoro-5-hydroxyphenyl)-1-methyl-6-trifluoromethyl-2,4(1H,3H)-pyrimidinedione], the herbicidal activity result is reported as “especially pronounced herbicidal activity”.
